# Test results reported in patent US20110224205A1 (NATIONAL TAIWAN UNIVERSITY, priority 2010, published 2011).
# Read-outs that look alike come from different tables or passages of the source.
# Key:
# [1] = tested on: active-p38 in IEC-18 cells; test: Western blot active-p38, IEC-18; assay type: cell-based, rat
# IEC-18 cells = test: MTT assay, IEC-18 intestinal epithelial cells; assay type: cell-based, rat
# Method: (§1) A MTT [3-(4,5-dimethylthiazolyl-2)-2,5-diphenyltetrazolium bromide] (Sigma, St Louis, Mo.) assay was performed to determine cell proliferation. Briefly, CL1-5, A549, PC-9, H1650, H1975 and IEC-18 cells were plated in 96-well plates at a density of 5×10^3 cells/well. […] MTT solution to a final concentration in the culture medium 0.5 mg/ml was then added to the wells. After a further 1.5 h of incubation, the medium was removed and DMSO was added to the plates.
# H1299 cells = assay type: cell-based, human
# [2] = tested on: EGFR, pEGFR, AKT, pAKT in A549 cells; test: Western blot EGFR signaling, A549; assay type: cell-based, human
# [3] = tested on: EGFR protein in lung adenocarcinoma cells; test: EGFR degradation (Western blot) and ubiquitination (immunoprecipitation); assay type: cell-based; conditions: without MG132
# H1975 cells [4] = conditions: 15 μM curcumin without gefitinib
# [5] = Adverse gastrointestinal effects and survival in xenograft study
# [6] = tested on: pEGFR, pAKT in H1299 cells; test: Western blot EGFR signaling, H1299; assay type: cell-based, human; conditions: gefitinib 1 μM alone, curcumin 10 and 15 μM alone, or gefitinib 1 μM + curcumin 15 μM
# [7] = tested on: CL1-5 lung adenocarcinoma xenograft; test: CL1-5 xenograft tumor growth; assay type: in vivo, SCID mice; conditions: control 638.55
# [8] = tested on: pAKT, cyclin D1 in H1975 cells; test: Western blot EGFR signaling, H1975; assay type: cell-based, human; conditions: H1975, curcumin 1-20 μM, EGF 20 ng/ml
# [9] = tested on: EGFR, pEGFR, AKT, pAKT in CL1-5 cells; test: Western blot EGFR signaling, CL1-5; assay type: cell-based, human
# A549 cells = assay type: cell-based, human
# Method: as §1
# H1975 cells [10] = assay type: cell-based, human
# Method: as §1
# CL1-5 cells = assay type: cell-based, human
# Method: as §1
# H1650 cells = assay type: cell-based, human
# Method: as §1
# EGFR mRNA in CL1-5 cells = test: Real-time quantitative RT-PCR of EGFR; assay type: cell-based, human; conditions: CL1-5, 1-20 μM, 24 h
# [11] = tested on: active-p38 in CL1-5 cells; test: Western blot active-p38, CL1-5; assay type: cell-based, human; conditions: CL1-5, gefitinib 0-20 μM
# [12] = SCID, mouse, in vivo, po, 3 weeks
structure (smiles),measurement,setting,value
"Cc1ccc(-n2nc(C(C)(C)C)cc2NC(=O)Nc2ccc(OCCN3CCOCC3)c3ccccc23)cc1 [BIRB 796, reference compound]",active-p38 expression on gefitinib-treated cells,"[1]; IEC-18, curcumin 5 μM, BIRB 796 10 nM",significantly decrease the active-p38 expression
same,rescue from toxic effect of gefitinib (cell survival),"IEC-18 cells; IEC-18, curcumin 5 μM, BIRB 796 10 nM, gefitinib 30 and 40 μM",rescue the cells from this toxic effect of gefitinib
CCOC(=O)CC/C(C(=O)/C=C/c1ccc(O)c(OC)c1)=C(O)\C=C\c1ccc(O)c(OC)c1 [JC-15],protection against gefitinib-induced intestinal cell death (FIG. 10),IEC-18 cells,protective effect to reduce gefitinib-induced intestinal cell death
COc1cc(/C=C/C(=O)C(C(C)=O)C(O)/C=C/c2ccc(O)c(OC)c2)ccc1O (centres unmarked) [LL68],protection against gefitinib-induced intestinal cell death (FIG. 10),IEC-18 cells,protective effect to reduce gefitinib-induced intestinal cell death
COc1cc(/C=C/C(O)=C/C(=O)/C=C/c2ccc(O)cc2)ccc1O [LL-18],protection against gefitinib-induced intestinal cell death (FIG. 10),IEC-18 cells,protective effect to reduce gefitinib-induced intestinal cell death
"COc1cc(/C=C/C(=O)/C=C(O)/C=C/c2ccc(O)c(OC)c2)ccc1O [curcumin, diferuloylmethane]",cell proliferation (FIG. 4A),H1299 cells,slight inhibition of cell proliferation
same,proliferation (FIG. 1A right),"H1299 cells; H1299, curcumin alone",inhibited by curcumin in a concentration-dependent manner
same,"EGFR, pEGFR, AKT, and pAKT protein expression","[2]; A549, curcumin 1-20 μM, EGF 20 ng/ml","reduce EGFR, pEGFR, AKT, and pAKT protein expression"
same,pEGFR and pAKT (FIG. 4B),"[2]; A549, gefitinib 1 μM alone, curcumin 10 and 15 μM alone, or gefitinib 1 μM + curcumin 15 μM",minimal suppressive effect
same,EGFR protein expression,[3],inhibit the EGFR protein expression in a dose-dependent manner
same,cells in apoptosis,H1975 cells [4],about 90%
same,morphology / full length of the intestine,[5],no obvious differences
same,pEGFR and pAKT (FIG. 4B),[6],minimal suppressive effect
same,rescue from toxic effect of gefitinib (cell survival),IEC-18 cells,rescue the cells from this toxic effect of gefitinib
same,average tumor size at the end of the study,[7]; curcumin 1 g/kg orally once daily,354.91 mm^3
same,AKT phosphorylation,[8],not altered
same,level of cyclin D1,[8],significantly reduced
same,"EGFR, pEGFR, AKT, and pAKT protein expression","[9]; CL1-5, curcumin 1-20 μM, EGF 20 ng/ml","reduce EGFR, pEGFR, AKT, and pAKT protein expression"
same,pEGFR and pAKT (FIG. 4B),"[9]; CL1-5, gefitinib 1 μM alone, curcumin 10 and 15 μM alone, or gefitinib 1 μM + curcumin 15 μM",minimal suppressive effect
same,cell proliferation (FIG. 4A),A549 cells,slight inhibition of cell proliferation
same,proliferation (FIG. 1A right),"A549 cells; A549, curcumin alone",inhibited by curcumin in a concentration-dependent manner
same,cell proliferation (FIG. 4A),H1975 cells [10],slight inhibition of cell proliferation
same,proliferation (FIG. 1A right),"H1975 cells [10]; H1975, curcumin alone",inhibited by curcumin in a concentration-dependent manner
same,cell proliferation (FIG. 4A),CL1-5 cells,slight inhibition of cell proliferation
same,proliferation (FIG. 1A right),"CL1-5 cells; CL1-5, curcumin alone",inhibited by curcumin in a concentration-dependent manner
same,cell proliferation (FIG. 4A),H1650 cells,slight inhibition of cell proliferation
same,proliferation (FIG. 1A right),"H1650 cells; H1650, curcumin alone",inhibited by curcumin in a concentration-dependent manner
same,levels of EGFR and AKT in the tumors,CL1-5 tumor tissue; Western blot of tumor tissue,decreased
same,PCNA marker in tumor tissue,CL1-5 tumor tissue; immunohistochemical staining,decreased
same,cell apoptosis in tumor tissue (TUNEL),"CL1-5 tumor tissue; in situ cell death detection, vs control (and gefitinib only)",induced cell apoptosis
same,EGFR mRNA expression,EGFR mRNA in CL1-5 cells,reduce EGFR mRNA expression in a concentration-dependent manner
"COc1cc2ncnc(Nc3ccc(F)c(Cl)c3)c2cc1OCCCN1CCOCC1 [gefitinib, N-(3-Chloro-4-fluoro-phenyl)-7-methoxy-6-(3-morpholin-4-ylpropoxy)quinazolin-4-amine]",body weight,[5],dramatic body weight lost
same,diarrhea,[5],obviously diarrhea side effect
same,morphology / full length of the intestine,[5],shorter and thinner
same,p38 activation,[11],did not elevate the p38 activation
same,active-p38,"[1]; IEC-18, gefitinib 0-20 μM",significant increased in a dose dependent manner
same,survival rate,[12],33%
same,IC25 for IEC-18 cell,IEC-18 cells; IEC-18,30 µM
same,IEC-18 cell survival,"IEC-18 cells; gefitinib 30 and 40 μM, 24 h",significantly reduce IEC-18 cell survival
same,average tumor size at the end of the study,[7]; gefitinib 120 mg/kg orally once daily,138.32 mm^3
same,cell proliferation (FIG. 4A),A549 cells,slight inhibition of cell proliferation
